Measured values from patent US8173788B2, “Peptide having ability to activate cancer-related gene” (priority 2005, dated 2012).
Where no end group is shown, it is not given here.

System: cancer-related gene
Assay: DNA chip analysis of cancer-related gene expression after treatment with the HPLC-purified peptide (Table 1)
Format: cell-based, human
Experimental: In this diagnosis method, cells or tissues of interest are treated with the peptide of the present invention as in the above-mentioned diagnosis method 1; thus the same specimen as in the diagnosis method 1 can be used. However, in this diagnosis method, the reverse transcription is conducted to generate a cDNA (first-strand cDNA) pool, which is complementary to the mRNA, by using total mRNA extracted from the cells or tissues treated with the peptide as a template and using oligo-dT primer having T7 RNA polymerase promoter region as a reverse primer. Then, after the second-strand cDNA synthesis, in vitro transcription (IVT) was conducted using T7 RNA polymerase and biotinylated rNTPs at 37° C. for 14 hr to yield biotin-labeled cRNA. The amount of the cRNA is measured with a spectrophotometer to confirm that at least […] of cRNA can be yielded.
The diagnosis method further includes processes for bringing this cRNA labeled with fluorescence dye or the like into contact with cDNA of a cancer-related gene which is immobilized on a plate for hybridization and for measuring the fluorescence intensity.
Thus, on the basis of the expression condition of a cancer-related gene, a tendency of canceration or malignancy of cancer can be determined.
An increase or decrease in the expression amount of a cancer-related gene is determined by comparing the expression level in a control. The cells and tissues used as the control are the same as those used in the diagnosis method 1.
Tables 1 and 2 show examples of cancer-related genes of which expression is increased and immune system genes of which expression is increased or decreased by the treatment with the peptide (HPLC-purified peptide) derived from cell membrane surfaces of human squamous-cell carcinoma cells UTC-8 (Deposition No.: FERM BP-08611, which is deposited with International Patent Organism Depositary, National Institute of Advanced Industrial Science and Technology).
The present inventor has verified the validity of this diagnosis method using 55000 cancer-related genes. When such a great number of cancer-related genes are used, DNA chip technology is preferably used. In the DNA chip technology, each DNA of the cancer-related genes is immobilized so as to be arrayed on a slide; the above-mentioned labeled cRNA solution is dropped into the slide; the cRNA which is not hybridized is removed by washing; and fluorescence intensity of each gene position is detected by a scanner. The results are compared with the result which is obtained by conducting the same process using the above-mentioned control solution. Thus, cancer-related genes of which expression is increased or decreased when cells or tissues are treated with the peptide of the present invention can be exhaustively analyzed.

QPQFGRRMESK [HPLC-purified peptide, peptide (HPLC-purified peptide) derived from cell membrane surfaces of human squamous-cell carcinoma cells UTC-8]
Fold Change (gene AF040963 MXD4): 2.357 | Fold Change (gene D16431 HDGF): 3.596 | Fold Change (gene D26120 splicing factor 1): 2.833 | Fold Change (gene K03218 SRC, v-src sarcoma viral oncogene homolog): 3.912 | Fold Change (gene M13150 MAS1): 2.07 | Fold Change (gene M32977 VEGF): 2.457 | Fold Change (gene M60119 HIVEP2): 2.205 | Fold Change (gene M62829 EGR1): 2.105 | Fold Change (gene M83221 RELB): 2.351 | Fold Change (gene M95712 BRAF): 3.034 | Fold Change (gene NM_000753 PDE3B): 2.741 | Fold Change (gene NM_001201 BMP3): 3.736 | Fold Change (gene NM_001402 EEF1A1): 2.405 | Fold Change (gene NM_001419 ELAVL1): 2.95 | Fold Change (gene NM_001511 CXCL1): 2.477 | Fold Change (gene NM_001570 IRAK2): 2.24 | Fold Change (gene NM_001665 ARHG): 2.111 | Fold Change (gene NM_002357 MAD): 2.397 | Fold Change (gene NM_002613 PDPK1): 2.866 | Fold Change (gene NM_002712 PPP1R7): 2.697 | Fold Change (gene NM_003017 SFRS3): 2.742 | Fold Change (gene NM_003685 KHSRP): 2.04 | Fold Change (gene NM_004204 PIGQ): 2.756 | Fold Change (gene NM_004218 RAB11B, member RAS oncogene family): 2.102 | Fold Change (gene NM_004723 ARHGEF2): 2.209 | Fold Change (gene NM_004906 WTAP): 2.544 | Fold Change (gene NM_005207 CRKL): 2.497 | Fold Change (gene NM_005524 HES1): 2.395 | Fold Change (gene NM_005730 CTDSP2, conserved gene amplified in osteosarcoma): 2.387 | Fold Change (gene NM_005850 SF3B4): 3.023 | Fold Change (gene NM_005937 MLLT6): 2.996 | Fold Change (gene NM_006191 PA2G4): 2.002 | Fold Change (gene NM_006318 putative glialblastoma cell differentiation-related): 2.098 | Fold Change (gene NM_006694 JTB): 2.019 | Fold Change (gene NM_006716 ASK, activator of S phase kinase): 2.23 | Fold Change (gene NM_006842 splicing factor 3b, subunit 2, 145 kDa): 2.245 | Fold Change (gene NM_007040 E1B-AP5): 2.433 | Fold Change (gene NM_007279 U2AF2): 2.494 | Fold Change (gene NM_012103 AUP1): 2.46 | Fold Change (gene NM_014308 P101-PI3K): 2.849 | Fold Change (gene NM_015714 G0S2): 2.481 | Fold Change (gene NM_016263 FZR1): 2.466 | Fold Change (gene U33819 MAZ): 2.093 | Fold Change (gene X03663 CSF1R): 2.781 | Fold Change (gene X54936 PGF): 3.576 | Fold Change (gene X61498 NFKB2): 2.833 | Fold Change (gene X78710 MTF1): 2.001
